# Reference: PubChem BioAssay AID324 (DTP/NCI, 2004)
# “And” between values parts separate entries of the source, which are not always exact repeats. Identical values can stand only once. Inconclusive results and toxic doses are left out.
# Test system: CD2F1 mice, AMSA-resistant P388 leukemia ip, median survival T/C
# Assay: NCI In Vivo Anticancer Drug Screen. Data for tumor model P388 Leukemia resistant to AMSA; NSC 249992 (intraperitoneal) in CD2F1 (CDF1) mice
# Details: endpoint: median survival time, higher = longer survival
# Protocol: The antitumor activity of compounds was measured in mice bearing transplantable tumors. Survival or tumor size were measured and the results are expressed as the measurement made in the treated group (T) divided by the measurement made in the vehicle treated control group (C). The tumor model used in this assay is P388 Leukemia resistant to AMSA; NSC 249992 (intraperitoneal) in CD2F1 (CDF1) mice
# [1] = dose: 4.32 mg/kg/injection, schedule: Q04DX003 (ip), vehicle: water
smiles,measurement,setting,value
N[C@@H](Cc1ccc(N(CCCl)CCCl)cc1)C(=O)O,T/C,"dose: 1.62 mg/kg/injection, schedule: Q04DX003 (ip), vehicle: saline",208 % of control
same,T/C,"dose: 1.94 mg/kg/injection, schedule: Q04DX002 (ip), vehicle: saline",211 % of control and 212 % of control
same,T/C,"dose: 2.7 mg/kg/injection, schedule: Q04DX003 (ip), vehicle: saline",211 % of control
same,T/C,"dose: 3.24 mg/kg/injection, schedule: Q04DX002 (ip), vehicle: saline",259 % of control and 262 % of control
same,T/C,"dose: 4.5 mg/kg/injection, schedule: Q04DX003 (ip), vehicle: saline",391 % of control
same,T/C,"dose: 5.4 mg/kg/injection, schedule: Q04DX002 (ip), vehicle: saline",416 % of control
same,T/C,"dose: 7.5 mg/kg/injection, schedule: Q04DX003 (ip), vehicle: saline",391 % of control
same,T/C,"dose: 9.0 mg/kg/injection, schedule: Q04DX002 (ip), vehicle: saline",416 % of control
same,T/C,"dose: 12.5 mg/kg/injection, schedule: Q04DX003 (ip), vehicle: saline",391 % of control
same,T/C,"dose: 15.0 mg/kg/injection, schedule: Q04DX002 (ip), vehicle: saline",120 % of control and 86 % of control
CO[C@H]1C[C@](C)(O)Cc2cc3c(c(O)c21)C(=O)c1c(O)cc2c(c1C3=O)O[C@@H]1O[C@@]2(C)[C@H](O)[C@@H](N(C)C)[C@@H]1O,T/C,"dose: 6.48 mg/kg/injection, schedule: Q04DX003 (ip), vehicle: other",111 % of control
same,T/C,"dose: 10.8 mg/kg/injection, schedule: Q04DX003 (ip), vehicle: other",114 % of control
same,T/C,"dose: 18.0 mg/kg/injection, schedule: Q04DX003 (ip), vehicle: other",110 % of control
same,T/C,"dose: 30.0 mg/kg/injection, schedule: Q04DX003 (ip), vehicle: other",102 % of control
O=C(Nc1ccc(C2=NCCCN2)cc1)c1ccc(C(=O)Nc2ccc(C3=NCCCN3)cc2)cc1,T/C,"dose: 10.8 mg/kg/injection, schedule: Q04DX003 (ip), vehicle: Klucel (hydroxypropylcellulose) (HPC)",167 % of control
same,T/C,"dose: 18.0 mg/kg/injection, schedule: Q04DX003 (ip), vehicle: Klucel (hydroxypropylcellulose) (HPC)",185 % of control
same,T/C,"dose: 30.0 mg/kg/injection, schedule: Q04DX003 (ip), vehicle: Klucel (hydroxypropylcellulose) (HPC)",278 % of control
same,T/C,"dose: 50.0 mg/kg/injection, schedule: Q04DX003 (ip), vehicle: Klucel (hydroxypropylcellulose) (HPC)",95 % of control
COc1cc(NS(C)(=O)=O)ccc1Nc1c2ccccc2nc2ccccc12,T/C,"dose: 1.56 mg/kg/injection, schedule: Q04DX003 (ip), vehicle: other",93 % of control
same,T/C,"dose: 2.33 mg/kg/injection, schedule: Q01DX001 (ip), vehicle: other",111 % of control
same,T/C,"dose: 2.59 mg/kg/injection, schedule: Q01DX001 (ip), vehicle: other",105 % of control
same,T/C,"dose: 2.59 mg/kg/injection, schedule: Q04DX001 (ip), vehicle: other",105 % of control
same,T/C,"dose: 2.59 mg/kg/injection, schedule: Q04DX002 (ip), vehicle: other",111 % of control and 116 % of control
same,T/C,"dose: 2.59 mg/kg/injection, schedule: Q04DX003 (ip), vehicle: clinical formulation",106 % of control
same,T/C,"dose: 2.59 mg/kg/injection, schedule: Q04DX003 (ip), vehicle: other",98 % of control and 100 % of control and 106 % of control
same,T/C,"dose: 2.59 mg/kg/injection, schedule: Q04DX003 (ip), vehicle: water",98 % of control and 100 % of control and 104 % of control
same,T/C,"dose: 3.89 mg/kg/injection, schedule: Q01DX001 (ip), vehicle: other",109 % of control
same,T/C,"dose: 4.32 mg/kg/injection, schedule: Q01DX001 (ip), vehicle: other",105 % of control
same,T/C,"dose: 4.32 mg/kg/injection, schedule: Q04DX001 (ip), vehicle: other",105 % of control
same,T/C,"dose: 4.32 mg/kg/injection, schedule: Q04DX002 (ip), vehicle: other",117 % of control and 120 % of control
same,T/C,"dose: 4.32 mg/kg/injection, schedule: Q04DX003 (ip), vehicle: clinical formulation",123 % of control
same,T/C,"dose: 4.32 mg/kg/injection, schedule: Q04DX003 (ip), vehicle: other",91 % of control and 101 % of control and 108 % of control
same,T/C,[1],100 % of control and 101 % of control and 105 % of control
same,T/C,"dose: 6.48 mg/kg/injection, schedule: Q01DX001 (ip), vehicle: other",104 % of control
same,T/C,"dose: 7.2 mg/kg/injection, schedule: Q01DX001 (ip), vehicle: other",101 % of control
same,T/C,"dose: 7.2 mg/kg/injection, schedule: Q04DX001 (ip), vehicle: other",101 % of control
same,T/C,"dose: 7.2 mg/kg/injection, schedule: Q04DX002 (ip), vehicle: other",101 % of control and 114 % of control
same,T/C,"dose: 7.2 mg/kg/injection, schedule: Q04DX003 (ip), vehicle: clinical formulation",124 % of control
same,T/C,"dose: 7.2 mg/kg/injection, schedule: Q04DX003 (ip), vehicle: other",97 % of control and 110 % of control and 89 % of control
same,T/C,"dose: 7.2 mg/kg/injection, schedule: Q04DX003 (ip), vehicle: water",102 % of control and 107 % of control and 113 % of control
same,T/C,"dose: 10.0 mg/kg/injection, schedule: Q04DX003 (ip), vehicle: saline with Tween-80",120 % of control
same,T/C,"dose: 10.8 mg/kg/injection, schedule: Q01DX001 (ip), vehicle: other",100 % of control
same,T/C,"dose: 12.0 mg/kg/injection, schedule: Q01DX001 (ip), vehicle: other",99 % of control
same,T/C,"dose: 12.0 mg/kg/injection, schedule: Q04DX001 (ip), vehicle: other",99 % of control
same,T/C,"dose: 12.0 mg/kg/injection, schedule: Q04DX002 (ip), vehicle: other",119 % of control and 120 % of control
same,T/C,"dose: 12.0 mg/kg/injection, schedule: Q04DX003 (ip), vehicle: other",90 % of control and 103 % of control (2×)
same,T/C,"dose: 12.0 mg/kg/injection, schedule: Q04DX003 (ip), vehicle: water",102 % of control
same,T/C,"dose: 18.0 mg/kg/injection, schedule: Q01DX001 (ip), vehicle: other",110 % of control
same,T/C,"dose: 20.0 mg/kg/injection, schedule: Q01DX001 (ip), vehicle: other",90 % of control
same,T/C,"dose: 20.0 mg/kg/injection, schedule: Q04DX001 (ip), vehicle: other",90 % of control
same,T/C,"dose: 20.0 mg/kg/injection, schedule: Q04DX002 (ip), vehicle: other",92 % of control and 111 % of control
same,T/C,"dose: 20.0 mg/kg/injection, schedule: Q04DX003 (ip), vehicle: other",106 % of control
same,T/C,"dose: 30.0 mg/kg/injection, schedule: Q01DX001 (ip), vehicle: other",105 % of control
CCCCC(=O)OCC(=O)[C@]1(O)Cc2c(O)c3c(c(O)c2[C@@H](OC2CC(NC(=O)C(F)(F)F)C(O)C(C)O2)C1)C(=O)c1c(OC)cccc1C3=O (stereo partly specified),T/C,"dose: 19.4 mg/kg/injection, schedule: Q04DX003 (ip), vehicle: clinical formulation",106 % of control
same,T/C,"dose: 32.4 mg/kg/injection, schedule: Q04DX003 (ip), vehicle: clinical formulation",117 % of control
same,T/C,"dose: 54.0 mg/kg/injection, schedule: Q04DX003 (ip), vehicle: clinical formulation",120 % of control
same,T/C,"dose: 90.0 mg/kg/injection, schedule: Q04DX003 (ip), vehicle: clinical formulation",113 % of control
COc1cc(NS(C)(=O)=O)ccc1Nc1c2ccccc2nc2cc(C(F)(F)F)c(N)cc12,T/C,"dose: 13.0 mg/kg/injection, schedule: Q04DX003 (ip), vehicle: distilled water + Tween-80",106 % of control
same,T/C,"dose: 21.6 mg/kg/injection, schedule: Q04DX003 (ip), vehicle: distilled water + Tween-80",103 % of control
same,T/C,"dose: 36.0 mg/kg/injection, schedule: Q04DX003 (ip), vehicle: distilled water + Tween-80",104 % of control
same,T/C,"dose: 60.0 mg/kg/injection, schedule: Q04DX003 (ip), vehicle: distilled water + Tween-80",108 % of control
same,T/C,"dose: 64.8 mg/kg/injection, schedule: Q04DX002 (ip), vehicle: water",114 % of control
same,T/C,"dose: 100.0 mg/kg/injection, schedule: Q04DX003 (ip), vehicle: distilled water + Tween-80",103 % of control
NCCCCS(=O)(=O)Nc1ccc(Nc2c3ccccc3nc3cc([N+](=O)[O-])ccc23)cc1,T/C,"dose: 38.9 mg/kg/injection, schedule: Q04DX003 (ip), vehicle: water",93 % of control
same,T/C,"dose: 64.8 mg/kg/injection, schedule: Q04DX003 (ip), vehicle: water",93 % of control
same,T/C,"dose: 108.0 mg/kg/injection, schedule: Q04DX003 (ip), vehicle: water",95 % of control
CN(C)c1ccc(Nc2c3ccccc3nc3ccccc23)cc1,T/C,"dose: 13.0 mg/kg/injection, schedule: Q04DX003 (ip), vehicle: saline with Tween-80",100 % of control
same,T/C,"dose: 21.6 mg/kg/injection, schedule: Q04DX003 (ip), vehicle: saline with Tween-80",98 % of control
same,T/C,"dose: 25.9 mg/kg/injection, schedule: Q04DX003 (ip), vehicle: saline",101 % of control
same,T/C,"dose: 36.0 mg/kg/injection, schedule: Q04DX003 (ip), vehicle: saline with Tween-80",96 % of control
same,T/C,"dose: 43.2 mg/kg/injection, schedule: Q04DX003 (ip), vehicle: saline",104 % of control
same,T/C,"dose: 60.0 mg/kg/injection, schedule: Q04DX003 (ip), vehicle: saline with Tween-80",100 % of control
same,T/C,"dose: 72.0 mg/kg/injection, schedule: Q04DX003 (ip), vehicle: saline",100 % of control
same,T/C,"dose: 100.0 mg/kg/injection, schedule: Q04DX003 (ip), vehicle: saline with Tween-80",103 % of control
CCN(CC)C1CC(O[C@H]2C[C@](O)(C(C)=O)Cc3c(O)c4c(c(O)c32)C(=O)c2c(OC)cccc2C4=O)OC(C)C1O (stereo partly specified),T/C,[1],117 % of control
same,T/C,"dose: 20.0 mg/kg/injection, schedule: Q04DX003 (ip), vehicle: water",166 % of control
